The values that follow come from patent publication US7470821B2, “Aldolase-inhibiting aromatic compounds” (Valorisation-Recherche, Limited Partnership, priority 2003, dated 2008).

The target in assay [1] is T1, native (wild-type) rabbit muscle aldolase (Oryctolagus cuniculus, UniProt P00883).
T1 construct: made in house
T1 sequence (P00883 2-364): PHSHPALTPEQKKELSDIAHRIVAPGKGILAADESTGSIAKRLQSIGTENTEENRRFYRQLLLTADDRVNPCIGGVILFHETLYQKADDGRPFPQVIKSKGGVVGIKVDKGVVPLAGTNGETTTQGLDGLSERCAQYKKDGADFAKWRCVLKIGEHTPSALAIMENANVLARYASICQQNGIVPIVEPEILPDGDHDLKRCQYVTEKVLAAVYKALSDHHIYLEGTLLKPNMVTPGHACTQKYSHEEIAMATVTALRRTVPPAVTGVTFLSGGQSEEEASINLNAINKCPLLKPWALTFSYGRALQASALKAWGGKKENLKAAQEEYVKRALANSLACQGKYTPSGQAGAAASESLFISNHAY
In words: UV-visible differential spectroscopy (method A) of aldolase-inhibitor complex formation. Type of assay: binding. Conditions: for ΔA relative to 432 nm / kapp: wild-type; for kapp: 431 nm. The method, then: Absorption spectra are measured using a Cary 1E Varian spectrophotometer at 25° C. The same TEA buffer is used for titrations and activity analyses. Absorption spectra are measured by two different methods, in particular as described in Gefflaut T. et al., 1986 (Bioorg. Med. Chem., 4:2043-2054) and Blonski C. et al., 1997 (Biochem J. 323:71-77).
(§1) For method A, absorption spectra are recorded as a function of time, between 250 and 500 nm, or at wavelengths corresponding to maximum or minimum absorption. Measurements are begun by adding FHN-P at varying final concentrations (0.1-1 mM) in the TEA buffer containing a fixed concentration of aldolase (10 μM of subunits). Measured absorption spectra for the enzyme complex are corrected using the absorbance of the buffer, the FHN—P, and the enzyme (measured separately). The differential absorption spectra thus obtained are used to calculate the value of the constants that define the formation of the aldolase-inhibitor complex.
The apparent first-order rate constant (kapp) and the maximum threshold variations of absorption (ΔAmax) are obtained for each test by applying the slow-binding absorption data to the first-order kinetic equation (or to both first-order kinetic mechanisms). The dissociation constant (Kd) for the Schiff base formed between the FHN-P and the aminocaproic acid is obtained from the absorption differences calculated at equilibrium by using the equation eqn.(2). The value of the dissociation constant (Ki) for the rapidly formed EI complex and that of the constant k2 correspond to the slow formation of the EI* complex resulting from analysis of the values of the first-order constants based on the equations eqn.(1) or eqn.(3).
The slight differences in band positions with the reaction model may be attributed to differences in the FHN-P protein environment in comparison to the model system. The changing spectra of absorbance differences coincides with two distinct first-order mechanisms. The rapid kinetics phase can be seen in a more significant change in absorbance and saturating behavior at a high inhibitor concentration, correlated with a total loss of enzyme activity. A slow kinetics phase can also be seen when the analyses are carried out at saturating concentrations of hexitol-P2 (10 mM). This slow kinetics phase, which corresponds to a constant thirty times weaker and which contributes to one-fourth of the final absorbance variation is not linked to the inhibition observed. At these saturating concentrations, the molar absorption coefficients relative to the linked FHN-P are calculated assuming that the for active aldolase sites are occupied: Δε431=3600±200 M^−1.cm^−1; Δε376=−2140±110 M^−1.cm^−1; Δε293=12480±650 M^−1.cm^−1; and Δε268=5080±250 M^−1.cm^−1.
(§2) Residues of lysine 106, 146 and 229 residues are located at the active aldolase sites and thus are candidates for causing inactivation by forming a Schiff base with the FHN-P. In order to identify which lysine is responsible for the differential absorbances in the presence of FHN-P, sporadic mutations of these lysine residues were created and named: K107M (Research Collaboratory for Structural Bioinformatics Protein Databank), K146M (Blonski C. et al., 1997, Biochem. J. 323:71-77) and […] (Research Collaboratory for Structural Bioinformatics Protein Databank). […] UV-visible differential spectroscopy (method A) was used to examine formation of the enzyme complex for each sporadic mutation in the presence of a fixed concentration of FHN-P (300 μM).

The target in the next assay is T2, K107M mutant RM aldolase (Oryctolagus cuniculus, UniProt P00883, K108M).
T2 construct: made in house
T2 sequence (P00883 1-364 K108M): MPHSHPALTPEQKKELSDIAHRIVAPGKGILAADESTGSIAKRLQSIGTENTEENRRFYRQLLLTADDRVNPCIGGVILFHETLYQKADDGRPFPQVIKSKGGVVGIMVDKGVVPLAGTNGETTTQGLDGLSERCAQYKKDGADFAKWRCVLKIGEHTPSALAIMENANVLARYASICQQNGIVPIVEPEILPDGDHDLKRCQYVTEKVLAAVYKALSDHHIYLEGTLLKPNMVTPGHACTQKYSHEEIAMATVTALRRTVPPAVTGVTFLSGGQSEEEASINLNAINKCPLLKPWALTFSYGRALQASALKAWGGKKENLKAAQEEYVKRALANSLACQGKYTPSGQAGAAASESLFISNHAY
As to the kind of experiment: UV-visible differential spectroscopy (method A) with mutated aldolase K107M. Type of assay: binding, rabbit. Conditions: FHN-P 300 μM. The method, then: as §1
Every UV-visible differential test spectroscopy test using mutated aldolases (10 μM of subunits) is carried out using method A. • Monitored by Electrospray Ionization Mass Spectrometry (ESI-MS).
as §2

Where [2] appears, read: formation of EI* complex, UV-visible differential spectroscopy.
[3] abbreviates: FHN-P 300 μM, first (rapid) phase.
Where [4] appears, read: FHN-P 300 μM, second (slow) phase.

Values joined by “and” are separate entries in the source; they are usually repeats but may differ in a detail not shown here. Identical values can stand only once. Like-named read-outs stand apart in the source and are kept apart here.

The term Ki denotes a dissociation constant, usually derived from enzyme kinetics or from competition with a known ligand. Turning to `O=Cc1c(O)ccc2cc(OP(=O)(O)O)ccc12` [FHN-P, 5-formyl-6-hydroxy-2-naphthylphosphate], the Ki was 125 ± 25 µM in assay [1] (EI complex, UV-visible differential spectroscopy, FHN-P 0.1-1 mM, aldolase 10 μM subunits, 25° C, read-out: Ki); 0.025 µM and ~0.025 µM in assay [1] (calculated from the spectroscopy results, read-out: global inhibition constant Ki*). In addition, in assay [1] (setting [2]), the k2 amounted to 0.067 ± 0.004 min⁻¹. Besides, the t1/2 in assay [1] (setting [2]) is roughly 6 min. Also, the “stoichiometry of FHN-P linked per tetrameric aldolase” value in assay [1] (maximum inhibition, EI* complex) is 3.9-4.2 mols of FHN-P linked per tetrameric aldolase mole. The Residual specific activity entry in assay [1] (wild-type aldolase, FHN-P 300 μM) was “ud (undetected)”; on K107M mutant RM aldolase, 95%. For the same molecule, the “ΔA relative to 432 nm” value is recorded as 100% in assay [1] (setting [3]), 25% in assay [1] (setting [4]) and 30% on K107M mutant RM aldolase (slow phase only). Moreover, the kapp in assay [1] (setting [3]) came out at 0.045 ± 0.0025 min⁻¹; in assay [1] (setting [4]), 0.0015 ± 0.00035 min⁻¹; on K107M mutant RM aldolase (slow phase only, 431 nm), 0.0015 ± 0.0005 min⁻¹.
